pIC50: −log10 of the molar value.
Tests used:
Format in all cases: biochemical
Factor Xa = Factor Xa (Homo sapiens (Human), UniProt P00742); assay: Dose response assay for protease inhibitors: Factor Xa; details: selectivity, Factor Xa over Factor XIa
Description: (§1) • Assay buffer: 20 mM Hepes, pH 7.4; 150 mM NaCl; 0.02% Tween 20 • Compounds: 10 mM stocks in DMSO • Substrate: 20 mM Glp-Pro-Arg-AMC, 25 mg/2.3 mL H2O (store at +4° C.) [Factor XIa, thrombin, and trypsin] • 20 mM Pro-Phe-Arg-AMC (Bachem I-1295), 25 mg/2.2 mL H2O • or Boc-Leu-Gly-Arg-AMC (Bachem I-1105), 25 mg/2.07 mL H2O • (store at +4° C.) [Factor Xa] • Enzyme: Factor XIa; 0.25 μM in 50% glycerol (20 μg/mL) • Trypsin; 0.2 μM in 50% glycerol (4.8 μg/mL) • Thrombin; 0.2 μM in 50% glycerol (7.34 μg/mL) • Factor Xa; 0.2 μM in 50% glycerol (9.2 μg/mL) • These stocks are aliquoted (˜100 μL/aliquot) and stored at −20° C. Methods: • 1. Dilute the substrate to 100 μM in assay buffer (30 μL/6 mL). The enzyme is diluted to 0.5 nM just prior to use (12 μL/6 mL for Factor XIa; 15 μL/6 mL for all of the rest.) • 2. Pipette 50 μL of substrate into each well of the 96 well (12×8) microtiter plate. (Column 1 is used as the 100% activity control and receives no compound, and Column 12 is the blank and receives no enzyme.) Add an additional 46 μL to column 2. • 3. Pipette 4 μL of each compound into the appropriate well in column 2 of the plate (unknowns assayed in triplicate, standard assayed in duplicate). The final compound concentration will be […] of the stock. • 4. Serially two-fold dilute the compound by mixing the sample in column 2, removing 50 μL to the next well (column 3), mix and remove to column 4, etc. until column 11. After mixing column 11, remove 50 μL and discard. • 5. Pipette 50 μL of buffer into column 12. Initiate the reaction by adding 50 μL of enzyme solution to each well of columns 1-11 as rapidly as possible. • 6. Read the plate in a spectrophotometer (SpectraMax) at 30° C., wherein each well is measured every 60 s for 30 min. For Factor Xa assays, each well is measured every 1 min for a total of 60 min. • 7. For Factor XIa assays, the compounds are assayed, in duplicate, at 3 different starting concentrations, 20, 2, and 0.2 μM; 1:10, 1:100, and 1:1000 dilution of 10 mM stock or at 2, 0.2, and 0.02 μM; 1:100, 1:1000, and 1:10,000 dilution of 10 mM stock. Data for each concentration are combined for graphing and data fitting. • 8. Data can be used both for estimation of IC50 and for estimation of Kon.

Thrombin = Thrombin (Homo sapiens (Human), UniProt P00734); assay: Dose response assay for protease inhibitors: thrombin; details: selectivity, thrombin over Factor XIa
Description: as §1

Factor XIa = Factor XIa (Homo sapiens (Human), UniProt P03951); assay: Factor XIa enzyme inhibition assay (dose response, fluorogenic AMC substrate); details: read-out: hFXIa IC50
Outline: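 Fluorogenic progress curves (30 min, 1-min reads, 30° C) were recorded for 0.25 nM FXIa cleaving 50 μM Glp-Pro-Arg-AMC in Hepes pH 7.4 buffer with NaCl and Tween 20. Compounds were serially two-fold diluted, and IC50 was fitted with a Hill equation.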

Trypsin = assay: Dose response assay for protease inhibitors: trypsin; details: selectivity, trypsin over Factor XIa
Description: as §1

Factor Xa, sequence (P00742 235-488): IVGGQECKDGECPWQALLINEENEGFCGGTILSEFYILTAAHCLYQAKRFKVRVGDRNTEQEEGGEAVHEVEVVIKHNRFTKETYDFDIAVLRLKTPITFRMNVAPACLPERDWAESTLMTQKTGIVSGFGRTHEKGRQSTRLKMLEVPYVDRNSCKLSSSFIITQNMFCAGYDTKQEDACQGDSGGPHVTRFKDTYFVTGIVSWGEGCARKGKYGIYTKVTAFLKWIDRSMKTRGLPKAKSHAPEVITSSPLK
Factor Xa, sequence (P00742 41-179 partner): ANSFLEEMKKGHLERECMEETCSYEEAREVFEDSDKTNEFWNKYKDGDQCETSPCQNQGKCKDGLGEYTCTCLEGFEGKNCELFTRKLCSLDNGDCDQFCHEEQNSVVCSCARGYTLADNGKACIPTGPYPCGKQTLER
Factor XIa, sequence (P03951 388-625): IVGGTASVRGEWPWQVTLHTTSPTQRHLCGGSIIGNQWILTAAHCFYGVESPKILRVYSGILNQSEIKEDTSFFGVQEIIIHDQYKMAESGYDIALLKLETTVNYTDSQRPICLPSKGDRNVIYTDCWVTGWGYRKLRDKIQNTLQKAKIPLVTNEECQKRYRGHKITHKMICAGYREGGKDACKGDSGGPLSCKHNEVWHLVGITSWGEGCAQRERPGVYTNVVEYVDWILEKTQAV
Factor XIa, sequence (P03951 19-387 partner): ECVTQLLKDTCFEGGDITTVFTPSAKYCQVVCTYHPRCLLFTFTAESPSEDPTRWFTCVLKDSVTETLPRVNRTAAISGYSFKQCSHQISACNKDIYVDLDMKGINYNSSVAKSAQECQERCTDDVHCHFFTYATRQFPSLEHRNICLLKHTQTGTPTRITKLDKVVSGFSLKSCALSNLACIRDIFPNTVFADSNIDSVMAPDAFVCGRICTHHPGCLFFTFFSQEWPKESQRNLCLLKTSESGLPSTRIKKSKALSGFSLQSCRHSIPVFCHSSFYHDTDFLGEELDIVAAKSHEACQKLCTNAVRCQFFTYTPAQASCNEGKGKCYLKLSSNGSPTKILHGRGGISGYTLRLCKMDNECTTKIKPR

| Compound | Ratio: FXa/FXIa (Factor Xa) | Ratio: Thrombin/FXIa (Thrombin) | pIC50 (Factor XIa) | Ratio: Trypsin/FXIa (Trypsin) |
| --- | --- | --- | --- | --- |
| CC[C@@H](NC(=O)N1C(=O)[C@H](Cc2ccnc(N)c2)[C@H]1C(=O)N(C)c1ccn(C)n1)c1ccc(C)c(F)c1 [Compound 1-136, (2S,3R)-3-((2-aminopyridin-4-yl)methyl)-N2-(1-methyl-1H-pyrazol-3-yl)-N1-((R)-1-(3-fluoro-4-methylphenyl)propyl)-N2-methyl-4-oxoazetidine-1,2-dicarboxamide] | H (“H” indicates 101-1000) | H (“H” indicates 101-1000) | > 8.00 | G (“G” indicates 1-100) |
| CC[C@@H](NC(=O)N1C(=O)[C@H](Cc2ccnc(N)c2)[C@H]1C(=O)N(C)c1nccn1C)c1ccc(C)cc1C [Compound 1-114, (2S,3R)-3-((2-aminopyridin-4-yl)methyl)-N2-(1-methyl-1H-imidazol-2-yl)-N1-((R)-1-(2,4-dimethylphenyl)propyl)-N2-methyl-4-oxoazetidine-1,2-dicarboxamide] | H (“H” indicates 101-1000) | H (“H” indicates 101-1000) | > 8.00 | G (“G” indicates 1-100) |
| CC[C@@H](NC(=O)N1C(=O)[C@H](Cc2cc(C)nc(N)c2)[C@H]1C(=O)N(C)c1ccnn1C)c1cccc(F)c1F [Compound 1-151, (2S,3R)-3-((2-amino-6-methylpyridin-4-yl)methyl)-N2-(1-methyl-1H-pyrazol-5-yl)-N1-((R)-1-(2,3-difluorophenyl)propyl)-N2-methyl-4-oxoazetidine-1,2-dicarboxamide] | I (“I” indicates > 500) | I (“I” indicates > 500) | > 8.00 | G (“G” indicates 1-100) |
| CC[C@@H](NC(=O)N1C(=O)[C@H](Cc2ccnc(N)c2)[C@H]1C(=O)N(C)c1cnn(C)c1)c1cc(F)c(F)c(F)c1 [Compound 1-199, (2S,3R)-3-((2-aminopyridin-4-yl)methyl)-N2-(1-methyl-1H-pyrazol-4-yl)-N1-((R)-1-(3,4,5-trifluorophenyl)propyl)-N2-methyl-4-oxoazetidine-1,2-dicarboxamide] | I (“I” indicates > 500) | H (“H” indicates 101-1000) | > 8.00 | H (“H” indicates 101-1000) |
| CC[C@@H](NC(=O)N1C(=O)[C@H](Cc2cc(C)nc(N)c2)[C@H]1C(=O)N(C)c1cnn(C)c1)c1cc(F)ccc1F [Compound 1-182, (2S,3R)-3-((2-amino-6-methylpyridin-4-yl)methyl)-N2-(1-methyl-1H-pyrazol-4-yl)-N1-((R)-1-(2,5-difluorophenyl)propyl)-N2-methyl-4-oxoazetidine-1,2-dicarboxamide] | I (“I” indicates > 500) | H (“H” indicates 101-1000) | > 8.00 | G (“G” indicates 1-100) |
| CC[C@@H](NC(=O)N1C(=O)[C@H](Cc2cc(C)nc(N)c2)[C@H]1C(=O)N(C)c1nccn1C)c1ccc(Cl)cc1 [Compound 1-105, (2S,3R)-3-((2-amino-6-methylpyridin-4-yl)methyl)-N2-(1-methyl-1H-imidazol-2-yl)-N1-((R)-1-(4-chlorophenyl)propyl)-N2-methyl-4-oxoazetidine-1,2-dicarboxamide] | I (“I” indicates > 500) | H (“H” indicates 101-1000) | 7.00 to 8.00 | G (“G” indicates 1-100) |
| CC[C@@H](NC(=O)N1C(=O)[C@H](Cc2ccnc(N)c2)[C@H]1C(=O)N(C)c1cnn(C)c1)c1ccc(C)c(F)c1F [Compound 1-208, (2S,3R)-3-((2-aminopyridin-4-yl)methyl)-N2-(1-methyl-1H-pyrazol-4-yl)-N1-((R)-1-(2,3-difluoro-4-methylphenyl)propyl)-N2-methyl-4-oxoazetidine-1,2-dicarboxamide] | – | – | > 8.00 | – |

Reference: patent US11691962B2 (eXIthera Pharmaceuticals, Inc., priority 2018, dated 2023)
